Results as given in patent US9125913B2, “Bcl-2-selective apoptosis-inducing agents for the treatment of cancer and immune diseases” (AbbVie Inc., priority 2008, dated 2015).

The compounds below were run on GST-Bcl-2 (assay: TR-FRET binding assay, Bcl-2). Conditions: TR-FRET Ki values.
In short: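 Compounds serially diluted in DMSO from 50 μM (2× starting concentration, 10% DMSO), mixed with GST-tagged protein, F-Bak peptide probe and Tb-labeled antibody, incubated 3 h at room temperature.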

Point of comparison: `CN1CCN(CCNc2ccc(S(=O)(=O)NC(=O)c3ccc(N4CCN(Cc5ccccc5-c5ccc(Cl)cc5)CC4)cc3Oc3ccccc3)cc2[N+](=O)[O-])CC1` [Example 85, 4-{4-[(4′-chloro-1,1′-biphenyl-2-yl)methyl]piperazin-1-yl}-N-[(4-{[2-(4-methylpiperazin-1-yl)ethyl]amino}-3-nitrophenyl)sulfonyl]-2-phenoxybenzamide], “Binding selectivity ratio (Bcl-XL Ki/Bcl-2 Ki)” value (“Binding selectivity ratio” below) 48.8. Against it:
- CN(C)CCCNc1ccc(S(=O)(=O)NC(=O)c2ccc(N3CCN(Cc4ccccc4-c4ccc(Cl)cc4)CC3)cc2Oc2ccc3[nH]ccc3c2)cc1S(=O)(=O)C(F)(F)F [Example 64, 4-{4-[(4′-chloro-1,1′-biphenyl-2-yl)methyl]piperazin-1-yl}-N-({4-{[3-(dimethylamino)propyl]amino}-3-[(trifluoromethyl)sulfonyl]phenyl}sulfonyl)-2-(1H-indol-5-yloxy)benzamide] — higher, 77.1
- O=C(NS(=O)(=O)c1ccc(NCCCN2CCOCC2)c(S(=O)(=O)C(F)(F)F)c1)c1ccc(N2CCN(Cc3ccccc3-c3ccc(Cl)cc3)CC2)cc1Oc1cccc2[nH]ccc12 [Example 65, 4-{4-[(4′-chloro-1,1′-biphenyl-2-yl)methyl]piperazin-1-yl}-2-(1H-indol-4-yloxy)-N-({4-[(3-morpholin-4-ylpropyl)amino]-3-[(trifluoromethyl)sulfonyl]phenyl}sulfonyl)benzamide] — lower, 4.8
- O=C(NS(=O)(=O)c1ccc(NCC2CCOCC2)c([N+](=O)[O-])c1)c1ccc(N2CCN(Cc3ccccc3-c3ccc(Cl)cc3)CC2)cc1Oc1cccnc1 [Example 79, 4-{4-[(4′-chloro-1,1′-biphenyl-2-yl)methyl]piperazin-1-yl}-N-({3-nitro-4-[(tetrahydro-2H-pyran-4-ylmethyl)amino]phenyl}sulfonyl)-2-(pyridin-3-yloxy)benzamide] — lower, 47.4
- CN(C)CCCN(C)c1ccc(S(=O)(=O)NC(=O)c2ccc(N3CCN(Cc4ccccc4-c4ccc(Cl)cc4)CC3)cc2Oc2ccccc2)cc1[N+](=O)[O-] [Example 87, 4-{4-[(4′-chloro-1,1′-biphenyl-2-yl)methyl]piperazin-1-yl}-N-({4-[[3-(dimethylamino)propyl](methyl)amino]-3-nitrophenyl}sulfonyl)-2-phenoxybenzamide] — higher, 533.8
- CN(C)CCCNc1ccc(S(=O)(=O)NC(=O)c2ccc(N3CCN(Cc4ccccc4-c4ccc(Cl)cc4)CC3)cc2Oc2ccccc2)cc1C#N [Example 90, 4-{4-[(4′-chloro-1,1′-biphenyl-2-yl)methyl]piperazin-1-yl}-N-[(3-cyano-4-{[3-(dimethylamino)propyl]amino}phenyl)sulfonyl]-2-phenoxybenzamide] — higher, 133
- O=C(NS(=O)(=O)c1ccc(NCCCN2CCCC2)c([N+](=O)[O-])c1)c1ccc(N2CCN(Cc3ccccc3-c3ccc(Cl)cc3)CC2)cc1Oc1ccccc1 [Example 91, 4-{4-[(4′-chloro-1,1′-biphenyl-2-yl)methyl]piperazin-1-yl}-N-({3-nitro-4-[(3-pyrrolidin-1-ylpropyl)amino]phenyl}sulfonyl)-2-phenoxybenzamide] — higher, 52.8
- CN(C)CCCNc1ccc(S(=O)(=O)NC(=O)c2ccc(N3CCN(Cc4ccccc4-c4ccc(Cl)cc4)CC3)cc2Oc2ccccc2)cc1C(F)(F)F [Example 92, 4-{4-[(4′-chloro-1,1′-biphenyl-2-yl)methyl]piperazin-1-yl}-N-{[4-{[3-(dimethylamino)propyl]amino}-3-(trifluoromethyl)phenyl]sulfonyl}-2-phenoxybenzamide] — higher, 79.7
- CC(C)N(C)CCCNc1ccc(S(=O)(=O)NC(=O)c2ccc(N3CCN(Cc4ccccc4-c4ccc(Cl)cc4)CC3)cc2Oc2ccccc2)cc1[N+](=O)[O-] [Example 93, 4-{4-[(4′-chloro-1,1′-biphenyl-2-yl)methyl]piperazin-1-yl}-N-{[4-({3-[isopropyl(methyl)amino]propyl}amino)-3-nitrophenyl]sulfonyl}-2-phenoxybenzamide] — higher, 60
- CN1CCN(CCNc2ccc(S(=O)(=O)NC(=O)c3ccc(N4CCN(CC5=C(c6ccc(Cl)cc6)CC(C)(C)CC5)CC4)cc3Oc3ccc4[nH]ccc4c3)cc2[N+](=O)[O-])CC1 [Example 95, 4-(4-{[2-(4-chlorophenyl)-4,4-dimethylcyclohex-1-en-1-yl]methyl}piperazin-1-yl)-2-(1H-indol-5-yloxy)-N-[(4-{[2-(4-methylpiperazin-1-yl)ethyl]amino}-3-nitrophenyl)sulfonyl]benzamide] — higher, 261.7
- CN1CCN(CCNc2ccc(S(=O)(=O)NC(=O)c3ccc(N4CCN(CC5=C(c6ccc(Cl)cc6)CC(C)(C)CC5)CC4)cc3Oc3cccc4[nH]ccc34)cc2[N+](=O)[O-])CC1 [Example 101, 4-(4-{[2-(4-chlorophenyl)-4,4-dimethylcyclohex-1-en-1-yl]methyl}piperazin-1-yl)-2-(1H-indol-4-yloxy)-N-[(4-{[2-(4-methylpiperazin-1-yl)ethyl]amino}-3-nitrophenyl)sulfonyl]benzamide] — higher, 121.2
- CN1CCN(c2ccc(S(=O)(=O)NC(=O)c3ccc(N4CCN(CC5=C(c6ccc(Cl)cc6)CC(C)(C)CC5)CC4)cc3Oc3ccc4[nH]ccc4c3)cc2[N+](=O)[O-])CC1 [Example 107, 4-(4-{[2-(4-chlorophenyl)-4,4-dimethylcyclohex-1-en-1-yl]methyl}piperazin-1-yl)-2-(1H-indol-5-yloxy)-N-{[4-(4-methylpiperazin-1-yl)-3-nitrophenyl]sulfonyl}benzamide] — higher, 62.5
- CC1(C)CCC(CN2CCN(c3ccc(C(=O)NS(=O)(=O)c4ccc(NC5CCN(CC(F)(F)F)CC5)c([N+](=O)[O-])c4)c(Oc4cccc5[nH]ccc45)c3)CC2)=C(c2ccc(Cl)cc2)C1 [Example 108, 4-(4-{[2-(4-chlorophenyl)-4,4-dimethylcyclohex-1-en-1-yl]methyl}piperazin-1-yl)-2-(1H-indol-4-yloxy)-N-[(3-nitro-4-{[1-(2,2,2-trifluoroethyl)piperidin-4-yl]amino}phenyl)sulfonyl]benzamide] — lower, 25.5

For `CN(C)CCCNc1ccc(S(=O)(=O)NC(=O)c2ccc(N3CCN(CC4=C(c5ccc(Cl)cc5)CC(C)(C)CC4)CC3)cc2Oc2ccc3[nH]ccc3c2)cc1S(=O)(=O)C(F)(F)Cl` [Example 67, N-[(3-{[chloro(difluoro)methyl]sulfonyl}-4-{[3-(dimethylamino)propyl]amino}phenyl)sulfonyl]-4-(4-{[2-(4-chlorophenyl)-4,4-dimethylcyclohex-1-en-1-yl]methyl}piperazin-1-yl)-2-(1H-indol-5-yloxy)benzamide], the “Binding selectivity ratio” value was >2.3.
`O=C(NS(=O)(=O)c1ccc(NCCCN2CCOCC2)cc1)c1ccc(N2CCN(Cc3ccccc3-c3ccc(Cl)cc3)CC2)cc1Oc1ccccc1` [Example 78, 4-{4-[(4′-chloro-1,1′-biphenyl-2-yl)methyl]piperazin-1-yl}-N-({4-[(3-morpholin-4-ylpropyl)amino]phenyl}sulfonyl)-2-phenoxybenzamide] was tested, and the “Binding selectivity ratio” value was >5.9.
